Among the data in ChEMBL document CHEMBL1142246, “Azetidine-2,4-diones (4-oxo-beta-lactams) as scaffolds for designing elastase inhibitors” (J Med Chem, 2008) are Activity and Ki values, retold here.

Activity calls are given as the source filed them. The rule behind the calls is not given here.

The first assay is filed under the species Sus scrofa. Put plainly: (§1) Inhibition of pig pancreatic elastase.
Take `CCOC(=O)CN1C(=O)C(CC)(CC)C1=O`: the outcome was inactive.

Turning to `CCC1(CC)C(=O)N(Cc2ccccc2)C1=O`, the result was inactive.

Biological target in the next assay: not listed separately
The assay is described as §1. Details: species or system Sus scrofa.
With `CCC1(CC)C(=O)N(c2ccc(Cl)cc2)C1=O`, the Ki was determined as 8.47 µM.

As to `CCC1(CC)C(=O)N(c2ccc(C)cc2)C1=O`, affinity was put at a Ki of 7.46 µM.

Turning to `CC1(C)C(=O)N(Cc2ccccc2)C1=O`, the Ki came to 184 µM.

Compound `CCC1(CC)C(=O)N(c2ccc(OC)cc2)C1=O` returned a Ki of 9.81 µM.

`CCC1(CC)C(=O)N(c2ccccc2)C1=O`: the Ki came out at 10.2 µM.

Regarding `CCC1(CC)C(=O)N(c2ccc(C#N)cc2)C1=O`, the affinity, expressed as Ki, was 6.02 µM. This Ki lies about 1.7-fold lower than the previous one.

`CC1(C)C(=O)N(c2ccc(Cl)cc2)C1=O` showed a Ki of 10 µM.
